Experimental data published in patent US20130065818A1, “Arylamide Compounds And Compositions And Uses Thereof” (POLYMEDIX, priority 2006, published 2013).
In brackets after ≈: the same amount, converted by molar mass. Like-named read-outs stand apart in the source and are kept apart here.

Test system: E. coli D31
Assay: MIC, control bacteria (Example 8)
Type: cell-based
Protocol: • Mueller-Hinton Broth in tubes was inoculated with 25 ocular isolates of Staphylococcus aureus fluoroquinolone-susceptible, Staphylococcus aureus fluoroquinolone-resistant, Staphylococcus epidermidis (Coagulase-negative Staphylococcus) fluoroquinolone-susceptible, Staphylococcus epidermidis (Coagulase-negative Staphylococcus) fluoroquinolone-resistant, Pseudomonas aeruginosa and Serratia marcescens, plus two controls (Staphylococcus aureus and E. coli) and incubated at 37° C. overnight on a shaker set at 250 rpm.
Control Bacteria—The two control bacteria (Staphylococcus aureus and E. coli) were treated as above.
Control Bacteria Set #1—this set of control bacteria were treated as the Streptococcus pneumoniae, Streptococcus viridans and Moraxella species (including Moraxella catarrhalis) test isolates above; the control bacteria underwent the same conditions as the test Streptococcus pneumoniae, Streptococcus viridans and Moraxella species (including Moraxella catarrhalis) isolates. This set of control bacteria was to determine whether there was a difference in the MICs by performing the MIC determinations in 2% lysed horse red blood cells with the standard method performed in Mueller-Hinton broth.
Control Bacteria Set #2—the control bacteria were added to 5 ml of Mueller-Hinton Broth without the 2% lysed horse red blood cells to achieve the standard inoculum concentration. This set of control bacteria is the normal control to determine whether the compounds are at the target MICs.
Control Bacteria Set #1—this set of control bacteria were treated as the Haemophilus influenzae test isolates above; the control bacteria underwent the same conditions as the test Haemophilus influenzae isolates. This set of control bacteria is to determine whether there was a difference in the MICs by performing the MIC determinations in HTM broth with the standard method performed in Mueller-Hinton broth.
Control Bacteria Set #2—the control bacteria were added to 5 ml of Mueller-Hinton Broth to achieve the standard inoculum concentration. This set of control bacteria is the normal control to determine whether the compounds are at the target MICs.
Ninety μl of the bacterial suspensions was dispensed in each well from column 1 to column 12. Each bacterial isolate was placed in one row of a 96 well polypropylene plate containing the test agents. The plates were placed on shaker at 15 minutes at room temperature, and then incubated at 37° C. overnight. MICs were determined visually as the lowest concentration of drug that inhibits visible bacterial growth.

How did the “Decrease of activity by addition of 2% lysed horse red blood cells to Mueller-Hinton broth” value (Control Bacteria E. coli D31) turn out when `N=C(N)NCCCCC(=O)Nc1cc(C(F)(F)F)cc(NC(=O)c2cnc(C(=O)Nc3cc(C(F)(F)F)cc(NC(=O)CCCCNC(=N)N)c3SCCN)cn2)c1SCCN` [Oligomer 5] was run?
The value was “increase or have no effect”.

What about the “Decrease of activity by use of HTM broth” value (Control Bacteria E. coli D31) of the same compound?
The value was “no effect”.

What about the MIC (Control Bacteria Set #1, run with Haemophilus influenzae MIC test, read-out: MIC) of the same compound?
Its MIC is 16 µg/mL (≈ 17.4 µM).

And the MIC (E. coli D31, Control for MIC Test SA-FQR, first batch)?
Its MIC is 4 µg/mL (≈ 4.36 µM).

And the MIC (E. coli D31, Control for MIC Test SA-FQS, first batch)?
Its MIC is 16 µg/mL (≈ 17.4 µM).

And the MIC (E. coli D31, new batches, Control Only 1)?
Its MIC is 8 µg/mL (≈ 8.72 µM).

And the MIC (E. coli D31, new batches, Control Only 2)?
The MIC was 8 µg/mL (≈ 8.72 µM).

What about the MIC (E. coli D31, new batches, Control Only 3) of the same compound?
Its MIC is 8 µg/mL (≈ 8.72 µM).

And the MIC (E. coli D31, new batches, Control Only 4)?
Its MIC is 16 µg/mL (≈ 17.4 µM).

And the MIC (Escherichia coli, D31, Control Bacteria Set #1, run with Moraxella MIC test, read-out: MIC)?
The MIC was 2 µg/mL (≈ 2.18 µM).

And the MIC (Escherichia coli, D31, Control Only 1, read-out: MIC of control bacteria on day of MIC testing)?
The MIC was 8 µg/mL.

And the MIC (Escherichia coli, D31, Control Only 2, read-out: MIC of control bacteria on day of MIC testing)?
The MIC was 8 µg/mL.

And the MIC (Escherichia coli, D31, Control Only 3, read-out: MIC of control bacteria on day of MIC testing)?
Its MIC is 8 µg/mL.

And the MIC (Escherichia coli, D31, Control Only 4, read-out: MIC of control bacteria on day of MIC testing)?
The MIC was 16 µg/mL.

And the MIC (Escherichia coli, D31, E. coli D31, Control Bacteria Set #1 (same conditions as test isolates), run with Streptococcus pneumoniae MIC test, read-out: MIC)?
The MIC was 2 µg/mL (≈ 2.18 µM).

What about the MIC (Escherichia coli, D31, E. coli D31, Control Bacteria Set #1 (same conditions as test isolates), run with Streptococcus viridans group MIC test, read-out: MIC) of the same compound?
Its MIC is 2 µg/mL (≈ 2.18 µM).

And the MIC (Escherichia coli, D31, E. coli D31, Control Bacteria Set #2 (Mueller-Hinton Broth), run with Streptococcus pneumoniae MIC test, read-out: MIC)?
Its MIC is 16 µg/mL (≈ 17.4 µM).

And the MIC (Escherichia coli, D31, E. coli D31, Control Bacteria Set #2 (Mueller-Hinton Broth), run with Streptococcus viridans group MIC test, read-out: MIC)?
Its MIC is 16 µg/mL (≈ 17.4 µM).

What about the MIC (Escherichia coli, D31, E. coli D31, control bacteria run with Pseudomonas aeruginosa MIC test, read-out: MIC) of the same compound?
The MIC was 8 µg/mL (≈ 8.72 µM).

And the MIC (Escherichia coli, D31, E. coli D31, control bacteria run with S. aureus fluoroquinolone-resistant MIC test, read-out: MIC)?
The MIC was 4 µg/mL (≈ 4.36 µM).

What about the MIC (Escherichia coli, D31, E. coli D31, control bacteria run with S. aureus fluoroquinolone-susceptible MIC test, read-out: MIC) of the same compound?
The MIC was 16 µg/mL (≈ 17.4 µM).

And the MIC (Escherichia coli, D31, E. coli D31, control bacteria run with S. epidermidis fluoroquinolone-resistant MIC test, read-out: MIC)?
The MIC was 4 µg/mL (≈ 4.36 µM).

And the MIC (Escherichia coli, D31, E. coli D31, control bacteria run with S. epidermidis fluoroquinolone-susceptible MIC test, read-out: MIC)?
Its MIC is 4 µg/mL (≈ 4.36 µM).

And the MIC (Escherichia coli, D31, E. coli D31, control bacteria run with Serratia marcescens MIC test, read-out: MIC)?
Its MIC is 4 µg/mL (≈ 4.36 µM).

What about the MIC (Escherichia coli, D31, E. coli D31, MIC previously obtained (target MIC), printed in parentheses, read-out: MIC for Control Bacteria within the parentheses) of the same compound?
Its MIC is 1.56 µg/mL (≈ 1.7 µM).

And the MIC (Escherichia coli, D31, E. coli D31, read-out: MIC)?
Its MIC is 1.56 µg/mL (≈ 1.7 µM).

And the MIC (Escherichia coli, D31, control for MIC test HI (Control Bacteria Set #2), read-out: MIC of control bacteria on day of MIC testing)?
Its MIC is 16 µg/mL.

What about the MIC (Escherichia coli, D31, control for MIC test MS (Control Bacteria Set #2), read-out: MIC of control bacteria on day of MIC testing) of the same compound?
The MIC was 16 µg/mL.

And the MIC (Escherichia coli, D31, control for MIC test PA, read-out: MIC of control bacteria on day of MIC testing)?
The MIC was 8 µg/mL.

What about the MIC (Escherichia coli, D31, control for MIC test SA-FQR, read-out: MIC of control bacteria on day of MIC testing) of the same compound?
The MIC was 4 µg/mL.

And the MIC (Escherichia coli, D31, control for MIC test SA-FQS, read-out: MIC of control bacteria on day of MIC testing)?
Its MIC is 16 µg/mL.

And the MIC (Escherichia coli, D31, control for MIC test SE-FQR, read-out: MIC of control bacteria on day of MIC testing)?
Its MIC is 4 µg/mL.

What about the MIC (Escherichia coli, D31, control for MIC test SE-FQS, read-out: MIC of control bacteria on day of MIC testing) of the same compound?
Its MIC is 4 µg/mL.

And the MIC (Escherichia coli, D31, control for MIC test SM, read-out: MIC of control bacteria on day of MIC testing)?
The MIC was 4 µg/mL.

What about the MIC (Escherichia coli, D31, control for MIC test SP, read-out: MIC of control bacteria on day of MIC testing) of the same compound?
The MIC was 16 µg/mL.

What about the MIC (Escherichia coli, D31, control for MIC test SV, read-out: MIC of control bacteria on day of MIC testing) of the same compound?
The MIC was 16 µg/mL.

What about the MIC (Escherichia coli, D31, reference MIC printed in parentheses beside the day's control value, read-out: MIC for Control Bacteria (within the parentheses)) of the same compound?
The MIC was 1.56 µg/mL (≈ 1.7 µM).
